Patent US20080051387A1, “TETRAHYDROPYRIDO[3,4-D]PYRIMIDINES AND RELATED ANALOGUES” (priority 2006, published 2008)

Molecular target: T1, chimeric human H3 receptor (Homo sapiens, UniProt Q9Y5N1)
T1 construct: rat Galpha-i2 (Gnai2, rat); made in house; host or cells: Sf9 insect cells (baculovirus); P2 membranes
Assay: Chimeric human H3 receptor screening GTP binding assay (inhibition of histamine-stimulated GTP-gamma35S binding, Example 8)
Assay type: biochemical
Conditions: 1 h; assay described in Example 8; symbol "!" in column headed Ki; read-out: Ki ("!": percent inhibition of agonist-induced GTP-gammaS binding to H3)
How it was run: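 Sf9 membranes co-expressing chimeric human H3 receptor and heterotrimeric G-protein (35 μg protein) incubated 60 min at room temperature with 4 μM compound, 1 μM histamine and 125 pM GTP-gamma35S in pH 7.4 buffer with 10 μM GDP. Filter-bound radioactivity, nonspecific (10 μM GTP-gammaS) subtracted, reported as % inhibition of histamine signal.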

T1 sequence (Q9Y5N1 with tags, fused parts or gaps): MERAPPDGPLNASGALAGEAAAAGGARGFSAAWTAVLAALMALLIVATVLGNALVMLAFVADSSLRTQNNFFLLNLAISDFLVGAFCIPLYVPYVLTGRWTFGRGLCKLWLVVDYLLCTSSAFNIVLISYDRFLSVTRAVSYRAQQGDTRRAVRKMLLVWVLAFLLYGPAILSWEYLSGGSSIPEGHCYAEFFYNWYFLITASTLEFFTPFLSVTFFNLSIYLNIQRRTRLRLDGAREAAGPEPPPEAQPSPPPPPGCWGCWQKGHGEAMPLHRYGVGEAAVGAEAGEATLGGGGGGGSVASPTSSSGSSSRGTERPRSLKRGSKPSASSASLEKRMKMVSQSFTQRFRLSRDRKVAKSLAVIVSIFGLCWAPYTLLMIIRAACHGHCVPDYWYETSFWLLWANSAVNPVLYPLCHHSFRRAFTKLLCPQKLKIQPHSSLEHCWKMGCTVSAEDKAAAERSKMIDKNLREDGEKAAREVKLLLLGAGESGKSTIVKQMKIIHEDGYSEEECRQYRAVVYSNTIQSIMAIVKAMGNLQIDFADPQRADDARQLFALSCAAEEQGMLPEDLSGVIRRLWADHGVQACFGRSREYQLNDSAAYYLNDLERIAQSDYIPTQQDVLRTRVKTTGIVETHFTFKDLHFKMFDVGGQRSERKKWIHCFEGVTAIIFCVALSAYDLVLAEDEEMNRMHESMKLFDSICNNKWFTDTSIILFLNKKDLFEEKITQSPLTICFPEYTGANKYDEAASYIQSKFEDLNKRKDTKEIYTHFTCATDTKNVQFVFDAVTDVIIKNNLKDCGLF

inhibition at 4 µM	SMILES
≥ 90%	O=C(c1sc2ccccc2c1Cl)N1CCc2cnc(N3CCN(C4CCC4)CC3)nc2CC1 [Compound 457, 7-[(3-chloro-1-benzothien-2-yl)carbonyl]-2-(4-cyclobutylpiperazin-1-yl)-6,7,8,9-tetrahydro-5H-pyrimido[4,5-d]azepine]
≥ 90%	CSc1sc(C(=O)N2CCc3cnc(N4CCN(C5CCC5)CC4)nc3CC2)c2c1C=CCC2 [Compound 458, 2-(4-cyclobutylpiperazin-1-yl)-7-{[3-(methylthio)-6,7-dihydro-2-benzothien-1-yl]carbonyl}-6,7,8,9-tetrahydro-5H-pyrimido[4,5-d]azepine]
≥ 90%	Cc1cc(C(=O)N2CCc3cnc(N4CCN(C5CCC5)CC4)nc3CC2)c(C)n1C [Compound 459, 2-(4-cyclobutylpiperazin-1-yl)-7-[(1,2,5-trimethyl-1H-pyrrol-3-yl)carbonyl]-6,7,8,9-tetrahydro-5H-pyrimido[4,5-d]azepine]
≥ 90%	Cn1nc(C(F)(F)F)cc1-c1ccc(C(=O)N2CCc3cnc(N4CCN(C5CCC5)CC4)nc3CC2)s1 [Compound 460, 2-(4-cyclobutylpiperazin-1-yl)-7-({5-[1-methyl-3-(trifluoromethyl)-1H-pyrazol-5-yl]-2-thienyl}carbonyl)-6,7,8,9-tetrahydro-5H-pyrimido[4,5-d]azepine]
≥ 90%	Cn1c(C(=O)N2CCc3cnc(N4CCN(C5CCC5)CC4)nc3CC2)cc2ccccc21 [Compound 461, 2-(4-cyclobutylpiperazin-1-yl)-7-[(1-methyl-1H-indol-2-yl)carbonyl]-6,7,8,9-tetrahydro-5H-pyrimido[4,5-d]azepine]
≥ 90%	CCn1c(C(=O)N2CCc3cnc(N4CCN(C5CCC5)CC4)nc3CC2)cc2ccccc21 [Compound 462, 2-(4-cyclobutylpiperazin-1-yl)-7-[(1-ethyl-1H-indol-2-yl)carbonyl]-6,7,8,9-tetrahydro-5H-pyrimido[4,5-d]azepine]
≥ 90%	CCCn1c(C(=O)N2CCc3cnc(N4CCN(C5CCC5)CC4)nc3CC2)cc2ccccc21 [Compound 463, 2-(4-cyclobutylpiperazin-1-yl)-7-[(1-propyl-1H-indol-2-yl)carbonyl]-6,7,8,9-tetrahydro-5H-pyrimido[4,5-d]azepine]
≥ 90%	O=C(c1ccsc1)N1CCc2cnc(N3CCN(C4CCC4)CC3)nc2CC1 [Compound 464, 2-(4-cyclobutylpiperazin-1-yl)-7-(3-thienylcarbonyl)-6,7,8,9-tetrahydro-5H-pyrimido[4,5-d]azepine]
≥ 90%	Cc1cc(C(=O)N2CCc3cnc(N4CCN(C5CCC5)CC4)nc3CC2)c(C)o1 [Compound 465, 2-(4-cyclobutylpiperazin-1-yl)-7-(2,5-dimethyl-3-furoyl)-6,7,8,9-tetrahydro-5H-pyrimido[4,5-d]azepine]
≥ 90%	Cc1oc(C(C)(C)C)cc1C(=O)N1CCc2cnc(N3CCN(C4CCC4)CC3)nc2CC1 [Compound 466, 7-(5-tert-butyl-2-methyl-3-furoyl)-2-(4-cyclobutylpiperazin-1-yl)-6,7,8,9-tetrahydro-5H-pyrimido[4,5-d]azepine]
≥ 90%	Cc1cc(C(=O)N2CCc3cnc(N4CCN(C5CCC5)CC4)nc3CC2)c(C(F)(F)F)o1 [Compound 467, 2-(4-cyclobutylpiperazin-1-yl)-7-[5-methyl-2-(trifluoromethyl)-3-furoyl]-6,7,8,9-tetrahydro-5H-pyrimido[4,5-d]azepine]
≥ 90%	Cc1cc(C(=O)N2CCc3cnc(N4CCN(C5CCC5)CC4)nc3CC2)oc1C [Compound 468, 2-(4-cyclobutylpiperazin-1-yl)-7-(4,5-dimethyl-2-furoyl)-6,7,8,9-tetrahydro-5H-pyrimido[4,5-d]azepine]
≥ 90%	Cc1oc(-c2ccccc2)cc1C(=O)N1CCc2cnc(N3CCN(C4CCC4)CC3)nc2CC1 [Compound 469, 2-(4-cyclobutylpiperazin-1-yl)-7-(2-methyl-5-phenyl-3-furoyl)-6,7,8,9-tetrahydro-5H-pyrimido[4,5-d]azepine]
≥ 90%	O=C(c1cc(-c2ccc(Cl)cc2)oc1C(F)(F)F)N1CCc2cnc(N3CCN(C4CCC4)CC3)nc2CC1 [Compound 470, 7-[5-(4-chlorophenyl)-2-(trifluoromethyl)-3-furoyl]-2-(4-cyclobutylpiperazin-1-yl)-6,7,8,9-tetrahydro-5H-pyrimido[4,5-d]azepine]
≥ 90%	Cc1oc(-c2ccc(Cl)cc2)cc1C(=O)N1CCc2cnc(N3CCN(C4CCC4)CC3)nc2CC1 [Compound 471, 7-[5-(4-chlorophenyl)-2-methyl-3-furoyl]-2-(4-cyclobutylpiperazin-1-yl)-6,7,8,9-tetrahydro-5H-pyrimido[4,5-d]azepine]
≥ 90%	O=C(c1ccc(Oc2cc(Cl)cc(Cl)c2)o1)N1CCc2cnc(N3CCN(C4CCC4)CC3)nc2CC1 [Compound 472, 2-(4-cyclobutylpiperazin-1-yl)-7-[5-(3,5-dichlorophenoxy)-2-furoyl]-6,7,8,9-tetrahydro-5H-pyrimido[4,5-d]azepine]

inhibition at 4 µM	SMILES
≥ 90%	O=C(c1cc2ccccc2o1)N1CCc2cnc(N3CCN(C4CCC4)CC3)nc2CC1 [Compound 473, 7-(1-benzofuran-2-ylcarbonyl)-2-(4-cyclobutylpiperazin-1-yl)-6,7,8,9-tetrahydro-5H-pyrimido[4,5-d]azepine]
≥ 90%	O=C(c1ccc(OCC(F)(F)F)nc1)N1CCc2cnc(N3CCN(C4CCC4)CC3)nc2CC1 [Compound 474, 2-(4-cyclobutylpiperazin-1-yl)-7-{[6-(2,2,2-trifluoroethoxy)pyridin-3-yl]carbonyl}-6,7,8,9-tetrahydro-5H-pyrimido[4,5-d]azepine]
≥ 90%	O=C(c1cncc(C#Cc2ccccc2)c1)N1CCc2cnc(N3CCN(C4CCC4)CC3)nc2CC1 [Compound 475, 2-(4-cyclobutylpiperazin-1-yl)-7-{[5-(phenylethynyl)pyridin-3-yl]carbonyl}-6,7,8,9-tetrahydro-5H-pyrimido[4,5-d]azepine]
≥ 90%	O=C(c1cnccc1C(F)(F)F)N1CCc2cnc(N3CCN(C4CCC4)CC3)nc2CC1 [Compound 476, 2-(4-cyclobutylpiperazin-1-yl)-7-{[4-(trifluoromethyl)pyridin-3-yl]carbonyl}-6,7,8,9-tetrahydro-5H-pyrimido[4,5-d]azepine]
≥ 90%	O=C(c1cccnc1Cl)N1CCc2cnc(N3CCN(C4CCC4)CC3)nc2CC1 [Compound 477, 7-[(2-chloropyridin-3-yl)carbonyl]-2-(4-cyclobutylpiperazin-1-yl)-6,7,8,9-tetrahydro-5H-pyrimido[4,5-d]azepine]
≥ 90%	O=C(c1ccc(Cl)nc1)N1CCc2cnc(N3CCN(C4CCC4)CC3)nc2CC1 [Compound 478, 7-[(6-chloropyridin-3-yl)carbonyl]-2-(4-cyclobutylpiperazin-1-yl)-6,7,8,9-tetrahydro-5H-pyrimido[4,5-d]azepine]
≥ 90%	CSc1ncc(Cl)c(C(=O)N2CCc3cnc(N4CCN(C5CCC5)CC4)nc3CC2)n1 [Compound 479, 7-{[5-chloro-2-(methylthio)pyrimidin-4-yl]carbonyl}-2-(4-cyclobutylpiperazin-1-yl)-6,7,8,9-tetrahydro-5H-pyrimido[4,5-d]azepine]
≥ 90%	O=C(c1ccc(-n2cccc2)nc1)N1CCc2cnc(N3CCN(C4CCC4)CC3)nc2CC1 [Compound 480, 2-(4-cyclobutylpiperazin-1-yl)-7-{[6-(1H-pyrrol-1-yl)pyridin-3-yl]carbonyl}-6,7,8,9-tetrahydro-5H-pyrimido[4,5-d]azepine]
≥ 90%	O=C(c1cncc(Br)c1)N1CCc2cnc(N3CCN(C4CCC4)CC3)nc2CC1 [Compound 481, 7-[(5-bromopyridin-3-yl)carbonyl]-2-(4-cyclobutylpiperazin-1-yl)-6,7,8,9-tetrahydro-5H-pyrimido[4,5-d]azepine]
≥ 90%	O=C(c1cnc2ccccc2c1)N1CCc2cnc(N3CCN(C4CCC4)CC3)nc2CC1 [Compound 482, 2-(4-cyclobutylpiperazin-1-yl)-7-(quinolin-3-ylcarbonyl)-6,7,8,9-tetrahydro-5H-pyrimido[4,5-d]azepine]
≥ 90%	O=C(c1ccnc(Cl)c1)N1CCc2cnc(N3CCN(C4CCC4)CC3)nc2CC1 [Compound 483, 7-(2-chloroisonicotinoyl)-2-(4-cyclobutylpiperazin-1-yl)-6,7,8,9-tetrahydro-5H-pyrimido[4,5-d]azepine]
≥ 90%	Cc1cc(C(=O)N2CCc3cnc(N4CCN(C5CCC5)CC4)nc3CC2)cc(Cl)n1 [Compound 484, 7-(2-chloro-6-methylisonicotinoyl)-2-(4-cyclobutylpiperazin-1-yl)-6,7,8,9-tetrahydro-5H-pyrimido[4,5-d]azepine]
≥ 90%	COc1cc(C(=O)N2CCc3cnc(N4CCN(C5CCC5)CC4)nc3CC2)cc(Cl)n1 [Compound 485, 7-(2-chloro-6-methoxyisonicotinoyl)-2-(4-cyclobutylpiperazin-1-yl)-6,7,8,9-tetrahydro-5H-pyrimido[4,5-d]azepine]
≥ 90%	Cc1cnc(C(=O)N2CCc3cnc(N4CCN(C5CCC5)CC4)nc3CC2)cn1 [Compound 486, 2-(4-cyclobutylpiperazin-1-yl)-7-[(5-methylpyrazin-2-yl)carbonyl]-6,7,8,9-tetrahydro-5H-pyrimido[4,5-d]azepine]
≥ 90%	O=C(c1ccncc1)N1CCc2cnc(N3CCN(C4CCC4)CC3)nc2CC1 [Compound 487, 2-(4-cyclobutylpiperazin-1-yl)-7-isonicotinoyl-6,7,8,9-tetrahydro-5H-pyrimido[4,5-d]azepine]
≥ 90%	O=C(c1cc(-c2ccccc2)nc2ccccc12)N1CCc2cnc(N3CCN(C4CCC4)CC3)nc2CC1 [Compound 488, 2-(4-cyclobutylpiperazin-1-yl)-7-[(2-phenylquinolin-4-yl)carbonyl]-6,7,8,9-tetrahydro-5H-pyrimido[4,5-d]azepine]
